Experiments:
[1] = Hygroscopicity of product; type: physicochemical; conditions: powdery product
[2] = Reducing power by Somogyi-Nelson's method expressed as DE; type: physicochemical; conditions: high-purity saccharide preparations of Experiment 4
Procedure: The reducing powders of these novel saccharides were determined on the Somogyi-Nelson's method and expressed by DE (dextrose equivalent).

[3] = molecular target: T1, α-amylase specimen derived from pig pancreas (Sus scrofa, UniProt P00690); experiment: Hydrolysis by α-amylase; type: biochemical; set-up: Saccharide composition of hydrolysate: P I / Saccharide composition of hydrolysate: P II / Saccharide composition of hydrolysate: G3 (maltotriose) / Saccharide composition of hydrolysate: G2 (maltose) / Saccharide composition of hydrolysate: G1 (glucose): unit not given here; conditions: for Hydrolysis by α-amylase: conclusion from Table 6; for Saccharide composition of hydrolysate: G1 (glucose) / Saccharide composition of hydrolysate: G2 (maltose) / Saccharide composition of hydrolysate: G3 (maltotriose) / Saccharide composition of hydrolysate: P I / Saccharide composition of hydrolysate: P II: α-amylase, 10 mg/ml, pH 6.9, 37° C., 18 hours, HPLC
T1 construct: purchased Sigma Chemical Company, St. Louis, USA; host or cells: pig pancreas
T1 sequence (P00690 16-511): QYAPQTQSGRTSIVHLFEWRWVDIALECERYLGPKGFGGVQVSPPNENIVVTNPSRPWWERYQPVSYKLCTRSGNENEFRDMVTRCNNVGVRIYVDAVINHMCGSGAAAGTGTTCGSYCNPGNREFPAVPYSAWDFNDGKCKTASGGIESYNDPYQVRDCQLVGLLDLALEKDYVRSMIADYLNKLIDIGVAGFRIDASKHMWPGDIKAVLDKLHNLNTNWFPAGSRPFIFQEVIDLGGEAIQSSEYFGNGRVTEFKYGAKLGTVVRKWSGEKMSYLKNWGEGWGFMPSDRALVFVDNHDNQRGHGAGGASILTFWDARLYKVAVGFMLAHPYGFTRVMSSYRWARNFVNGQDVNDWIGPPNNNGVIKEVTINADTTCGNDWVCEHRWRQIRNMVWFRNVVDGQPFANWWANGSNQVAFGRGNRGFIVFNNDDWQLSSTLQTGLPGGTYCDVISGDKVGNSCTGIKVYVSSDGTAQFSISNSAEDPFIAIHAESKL
Procedure: (§1) The enzymatic reaction with the α-amylase was as follows: Dissolving 10 mg of a substrate in one ml of 50 mM phosphate buffer (pH 6.9), mixing the resultant solution with one unit of the α-amylase, and incubating the resultant mixture at 37° C. for 18 hours. The enzymatic reaction with the α-glucosidase was conducted under the same conditions as in the case of α-amylase except that 50 mM acetate buffer (pH 4.0) was used as a buffer. The enzymatic reaction with the rat intestinal acetone powder was carried out under the same conditions as in the case of α-amylase except that 50 mM maleate buffer (pH 6.0) was used as a buffer.

glucoamylase = experiment: Enzymatic hydrolysis by glucoamylase; type: biochemical; conditions: for Glucose / Trehalose: 50 mg in 1 ml 50 mM acetate buffer pH 4.5, one unit glucoamylase, 40° C., 6 hours, HPLC; for Molecular ratio (Glucose/Trehalose): glucoamylase hydrolysate
Procedure: Fifty mg aliquots of non-reducing saccharides P I, P II, P III, P IV and P V in Experiment 4 were respectively dissolved in one ml of 50 mM acetate buffer (pH 4.5), admixed with one unit of glucoamylase commercialized by Seikagaku-Kogyo Co., Ltd., Tokyo, Japan, to effect enzymatic hydrolysis at 40° C. for 6 hours. The only saccharides detected in every resultant mixture on HPLC analysis were glucose and trehalose.

[4] = test system: rat intestinal acetone powder; experiment: Hydrolysis by rat intestinal acetone powder; type: in vitro ADME; conditions: 50 mM maleate buffer pH 6.0, 37° C., 18 hours
Procedure: as §1

β-amylase = β-amylase (Glycine max, UniProt P10538); experiment: Hydrolysis by β-amylase; type: biochemical; conditions: similarly as with glucoamylase
[5] = molecular target: T2, α-glucosidase specimen derived from rice (Oryza sativa subsp. japonica, UniProt Q653V7); experiment: Hydrolysis by α-glucosidase; type: biochemical; conditions: 50 mM acetate buffer pH 4.0, 37° C., 18 hours
T2 construct: purchased Sigma Chemical Company, St. Louis, USA; host or cells: rice
Procedure: as §1

[6] = Maillard reaction with glycine; type: physicochemical; conditions: for Coloration degree (480 nm): 1% glycine, 10% saccharide, 50 mM phosphate buffer pH 7.0, 100° C. for 90 min, absorbance in 1-cm cell; for Coloration degree relative to corresponding material maltooligosaccharide: Maillard reaction, 480 nm
Procedure: As a control, maltotriose, maltotetraose, maltopentaose, maltohexaose and maltoheptaose as a material for the saccharide preparations were similarly treated as above, and measured their absorbances were measured at a wave length of 480 nm.

[7] = test system: 7-week old dd-strain mice; experiment: Acute toxicity test, oral; type: in vivo; conditions: for Death of mice: oral, highest possible doses; for LD50: mouse, in vivo, po
[8] = molecular target: T3, trehalase derived from pig kidney (Sus scrofa, UniProt I3LIR5); experiment: Hydrolysis by trehalase; type: biochemical; conditions: one unit trehalase, pH 5.7, 37° C., 18 hours; HPLC
T3 construct: purchased Sigma Chemical Company, St. Louis, USA; host or cells: pig kidney
T3 sequence (I3LIR5 24-583): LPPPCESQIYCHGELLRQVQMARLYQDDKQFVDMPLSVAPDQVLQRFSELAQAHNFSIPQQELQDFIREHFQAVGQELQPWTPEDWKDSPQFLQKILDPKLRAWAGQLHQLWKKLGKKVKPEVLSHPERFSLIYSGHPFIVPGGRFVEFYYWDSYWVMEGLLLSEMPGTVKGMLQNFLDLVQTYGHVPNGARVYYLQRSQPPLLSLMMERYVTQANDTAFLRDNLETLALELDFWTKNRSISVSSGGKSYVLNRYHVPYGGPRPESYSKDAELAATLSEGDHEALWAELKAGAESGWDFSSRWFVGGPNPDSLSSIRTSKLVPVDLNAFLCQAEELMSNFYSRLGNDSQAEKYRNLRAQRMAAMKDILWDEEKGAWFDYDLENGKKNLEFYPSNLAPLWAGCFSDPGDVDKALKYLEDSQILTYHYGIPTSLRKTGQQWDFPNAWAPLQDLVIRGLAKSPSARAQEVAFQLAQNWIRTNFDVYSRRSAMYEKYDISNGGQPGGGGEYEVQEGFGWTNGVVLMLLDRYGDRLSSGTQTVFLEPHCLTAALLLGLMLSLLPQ

Sequence of β-amylase (P10538 whole entry, species assumed): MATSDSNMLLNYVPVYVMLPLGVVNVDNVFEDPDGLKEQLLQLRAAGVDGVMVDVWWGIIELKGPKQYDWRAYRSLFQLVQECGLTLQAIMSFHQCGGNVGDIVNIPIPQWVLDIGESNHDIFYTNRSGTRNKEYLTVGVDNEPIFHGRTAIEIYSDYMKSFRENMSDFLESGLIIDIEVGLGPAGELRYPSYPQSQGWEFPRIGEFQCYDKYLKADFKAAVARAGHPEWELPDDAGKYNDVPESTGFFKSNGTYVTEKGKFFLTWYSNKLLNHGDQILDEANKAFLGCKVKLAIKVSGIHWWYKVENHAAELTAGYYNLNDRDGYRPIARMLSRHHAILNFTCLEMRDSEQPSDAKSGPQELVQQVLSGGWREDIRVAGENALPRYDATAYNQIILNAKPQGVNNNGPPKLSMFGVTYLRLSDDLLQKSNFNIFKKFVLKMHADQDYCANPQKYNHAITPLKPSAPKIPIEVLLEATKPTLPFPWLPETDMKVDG
T2 sequence (Q653V7 34-885): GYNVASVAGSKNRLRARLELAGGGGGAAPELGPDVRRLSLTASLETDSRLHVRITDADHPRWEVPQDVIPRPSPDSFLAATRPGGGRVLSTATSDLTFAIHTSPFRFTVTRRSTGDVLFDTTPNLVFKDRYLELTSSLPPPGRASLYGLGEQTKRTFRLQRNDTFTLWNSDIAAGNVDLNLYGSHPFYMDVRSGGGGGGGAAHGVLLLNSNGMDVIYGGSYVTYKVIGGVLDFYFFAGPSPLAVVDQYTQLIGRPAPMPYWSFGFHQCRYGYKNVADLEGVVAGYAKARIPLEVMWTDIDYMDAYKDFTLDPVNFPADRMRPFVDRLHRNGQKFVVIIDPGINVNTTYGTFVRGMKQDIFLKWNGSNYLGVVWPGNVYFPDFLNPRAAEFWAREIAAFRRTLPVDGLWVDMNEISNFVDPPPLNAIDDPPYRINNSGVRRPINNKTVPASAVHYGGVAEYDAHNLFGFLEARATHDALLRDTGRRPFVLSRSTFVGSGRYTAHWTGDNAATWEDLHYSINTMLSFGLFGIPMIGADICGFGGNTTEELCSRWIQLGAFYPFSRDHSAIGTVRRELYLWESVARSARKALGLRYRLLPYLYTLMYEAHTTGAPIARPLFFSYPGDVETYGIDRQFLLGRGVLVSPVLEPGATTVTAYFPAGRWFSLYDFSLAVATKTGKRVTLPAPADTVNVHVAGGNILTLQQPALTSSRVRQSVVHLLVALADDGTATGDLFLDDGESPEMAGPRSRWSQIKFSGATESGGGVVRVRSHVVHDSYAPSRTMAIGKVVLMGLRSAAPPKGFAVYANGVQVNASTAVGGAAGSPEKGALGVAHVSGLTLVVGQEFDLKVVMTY

Structure (SMILES) | DE [2] | Hydrolysis by α-amylase [3] | Saccharide composition of hydrolysate: G1 (glucose) [3] | Saccharide composition of hydrolysate: G2 (maltose) [3] | Saccharide composition of hydrolysate: G3 (maltotriose) [3] | Saccharide composition of hydrolysate: P I [3] | Saccharide composition of hydrolysate: P II [3] | Glucose (glucoamylase) [%] | Trehalose (glucoamylase) [%] | Molecular ratio (Glucose/Trehalose) (glucoamylase) | Saccharide composition of hydrolysate with rat intestinal acetone powder: Glucose [4] [%] | Saccharide composition of hydrolysate with rat intestinal acetone powder: Other saccharides [4] [%] | Saccharide composition of hydrolysate with rat intestinal acetone powder: Trehalose [4] [%] | Hydrolysis by β-amylase (β-amylase) | Saccharide composition of hydrolysate with α-glucosidase: Glucose [5] [%] | Saccharide composition of hydrolysate with α-glucosidase: Other saccharides [5] [%] | Saccharide composition of hydrolysate with α-glucosidase: Trehalose [5] [%] | Coloration degree (480 nm) [6] | Coloration degree relative to corresponding material maltooligosaccharide [6] | Death of mice [7] | also measured
OC[C@H]1O[C@H](O[C@H]2O[C@H](CO)[C@@H](O)[C@H](O)[C@H]2O)[C@H](O)[C@@H](O)[C@@H]1O [Example A-6, trehalose] | – | – | – | – | – | – | – | – | – | – | – | – | – | – | – | – | – | – | – | – | Hygroscopicity [1]: no substantial hygroscopicity
OC[C@H]1O[C@H](O[C@H]2O[C@H](CO)[C@@H](O[C@H]3O[C@H](CO)[C@@H](O[C@H]4O[C@H](CO)[C@@H](O[C@H]5O[C@H](CO)[C@@H](O)[C@H](O)[C@H]5O)[C@H](O)[C@H]4O)[C@H](O)[C@H]3O)[C@H](O)[C@H]2O)[C@H](O)[C@@H](O)[C@@H]1O [P III, α-maltotriosyl trehalose] | 0.10 | hydrolyzed by α-amylase into lower molecular weight oligosaccharides | 1.2 | 33.0 | 0 | 61.0 | 4.8 | 61.4 | 38.6 | 3.02 | 62.0 | 0.4 | 37.6 | one mole of maltose and one mole of P I | 61.7 | 0.2 | 38.1 | 0.012 | 3-6% | no mouse died | –
OC[C@H]1O[C@H](O[C@H]2O[C@H](CO)[C@@H](O[C@H]3O[C@H](CO)[C@@H](O[C@H]4O[C@H](CO)[C@@H](O[C@H]5O[C@H](CO)[C@@H](O[C@H]6O[C@H](CO)[C@@H](O)[C@H](O)[C@H]6O)[C@H](O)[C@H]5O)[C@H](O)[C@H]4O)[C@H](O)[C@H]3O)[C@H](O)[C@H]2O)[C@H](O)[C@@H](O)[C@@H]1O [P IV, α-maltotetraosyl trehalose] | 0.27 | hydrolyzed by α-amylase into lower molecular weight oligosaccharides | 1.6 | 7.5 | 40.4 | 47.2 | 3.3 | 68.3 | 31.7 | 4.09 | 68.8 | 0.4 | 30.8 | one mole of maltose and one mole of P II | 69.5 | 0.3 | 30.2 | 0.016 | 3-6% | no mouse died | LD50 [7]: ≥ 50000 mg/kg
OC[C@H]1O[C@H](O[C@H]2O[C@H](CO)[C@@H](O[C@H]3O[C@H](CO)[C@@H](O[C@H]4O[C@H](CO)[C@@H](O[C@H]5O[C@H](CO)[C@@H](O[C@H]6O[C@H](CO)[C@@H](O[C@H]7O[C@H](CO)[C@@H](O)[C@H](O)[C@H]7O)[C@H](O)[C@H]6O)[C@H](O)[C@H]5O)[C@H](O)[C@H]4O)[C@H](O)[C@H]3O)[C@H](O)[C@H]2O)[C@H](O)[C@@H](O)[C@@H]1O [P V, α-maltopentaosyl trehalose] | 0.23 | hydrolyzed by α-amylase into lower molecular weight oligosaccharides | 1.0 | 8.6 | 35.3 | 10.2 | 44.9 | 72.9 | 27.1 | 5.11 | 73.4 | 0.1 | 26.5 | two moles of maltose and one mole of P I | 71.4 | 0.3 | 28.3 | 0.015 | 3-6% | no mouse died | LD50 [7]: ≥ 50000 mg/kg
OC[C@H]1O[C@H](O[C@H]2O[C@H](CO)[C@@H](O)[C@H](O)[C@H]2O)[C@H](O)[C@@H](O)[C@@H]1O [trehalose, α, α-trehalose] | – | – | – | – | – | – | – | – | – | – | – | – | – | – | – | – | – | – | – | – | Hydrolysis by trehalase [8]: hydrolyzed by trehalase into glucose molecules

Reference: patent US5922580A, “Non-reducing saccharide-forming enzyme, its preparation and uses” (priority 1992, dated 1999)
